Literature values as cited in patent US4096052A, “Electrochemical hydroxylation of certain aromatic compounds” (priority 1977, dated 1978).
Like-named read-outs stand apart in the source and are kept apart here. Blank lines part the entries; values can stand above or below the compound they belong to.

[1] = Table II (comparison acids), H2O, 25° C

SMILES: O=C(O)CBr [bromoacetic]
Ka (H2 O) at 25° C (Table I, H2O, 25° C): 2.05 × 10^-3

SMILES: O=C(O)CCl [chloroacetic, chloroacetic acid]
Ka (H2 O) at 25° C (Table I, H2O, 25° C): 1.4 × 10^-3

Ka (H2 O) at 25° C (Table I, H2O, 25° C): 3.65 × 10^-3
pKa (H2 O) at 25° C (water): 2.41
SMILES: N#CCC(=O)O [cyanoacetic, cyanoacetic acid]

SMILES: O=C(O)C(Cl)Cl [dichloroacetic]
Ka (H2 O) at 25° C (Table I, H2O, 25° C): 3.32 × 10^-2

Ka (H2 O) at 25° C [1]: 1.5 × 10^-5
SMILES: CCCCC(=O)O [n-valeric]

Ka (H2 O) (Table I, H2O, 18° C): 6.95 × 10^-3
pKa (H2 O) (water): 2.16
SMILES: O=C(O)c1ccccc1[N+](=O)[O-] [o-nitrobenzoic, o-nitrobenzoic acid]

SMILES: O=C(O)Cc1ccccc1 [phenylacetic]
Ka (H2 O) (Table II, H2O, 18° C): 5.2
pKa (H2 O) (Table II, H2O, 18° C): 4.28

Ka (H2 O) at 25° C [1]: 1.34 × 10^-5
SMILES: CCC(=O)O [propionic]

SMILES: O=C(O)C(Cl)(Cl)Cl [trichloroacetic, trichloroacetic acid]
Ka (H2 O) at 25° C (Table I, H2O, 25° C): 2 × 10^-1
pKa (H2 O) at 25° C (Table I, H2O, 25° C): 0.70

SMILES: O=C(O)C(F)(F)F [trifluoroacetic, trifluoroacetic acid]
dissociation in aqueous solution (Table I footnote in place of Ka) (Table I footnote, H2O, 25° C): completely dissociated in aqueous solution
pKa (H2 O) at 25° C (Table I, H2O, 25° C): 0

pKa (H2 O) at 25° C (water): 4.34
SMILES: C=CCC(=O)O [vinylacetic]

SMILES: CCC(Cl)C(=O)O (stereo not drawn) [α-chlorobutyric]
Ka (H2 O) at 25° C (Table I, H2O, 25° C): 1.39 × 10^-3
pKa (H2 O) at 25° C (Table I, H2O, 25° C): 2.86

SMILES: CC(Cl)C(=O)O (stereo not drawn) [α-chloropropionic]
Ka (H2 O) at 25° C (Table I, H2O, 25° C): 1.47 × 10^-3
pKa (H2 O) at 25° C (Table I, H2O, 25° C): 2.83

SMILES: CC(Cl)CC(=O)O (stereo not drawn) [β-chlorobutyric]
Ka (H2 O) at 25° C [1]: 8.9 × 10^-5
pKa (H2 O) at 25° C [1]: 4.05

Ka (H2 O) at 25° C [1]: 1.04 × 10^-4
pKa (H2 O) at 25° C [1]: 3.98
SMILES: O=C(O)CCCl [β-chloropropionic]
